Data: the NIST ThermoML archive (doi:10.1016/j.fluid.2016.07.018)
± gives the expanded uncertainty stated by the source.

Conditions: Liquid
[1] = 313.15 K, gas saturation method
[2] = 333.15 K, gas saturation method
[3] = 353.15 K, gas saturation method
[4] = 373.15 K, gas saturation method
[5] = 393.15 K, gas saturation method
[6] = 423.15 K, gas saturation method

Row | Structure (SMILES) | vapor or sublimation pressure [1] | vapor or sublimation pressure [2] | vapor or sublimation pressure [3] | vapor or sublimation pressure [4] | vapor or sublimation pressure [5] | vapor or sublimation pressure [6] | vapor or sublimation pressure (381.51 K, Closed cell (Static) method) | vapor or sublimation pressure (391.7 K, Closed cell (Static) method) | vapor or sublimation pressure (401.69 K, Closed cell (Static) method) | vapor or sublimation pressure (411.58 K, Closed cell (Static) method) | vapor or sublimation pressure (421.43 K, Closed cell (Static) method)
1 | CC(C)COC(=O)c1ccccc1C(=O)OCC(C)C [diisobutyl 1,2-benzenedioate] | 4.1e-05 ± 3e-06 kPa | 0.000436 ± 4.3e-05 kPa | 0.002796 ± 0.00025 kPa | 0.01285 ± 0.001 kPa | 0.0445 ± 0.0035 kPa | 0.2156 ± 0.017 kPa |  |  |  |  | 
2 | CCCCOC(=O)c1ccccc1C(=O)OCCCC [dibutyl phthalate] | 2.4e-05 ± 2e-06 kPa | 0.000195 ± 1.5e-05 kPa | 0.001289 ± 0.0001 kPa | 0.006211 ± 0.00057 kPa | 0.02452 ± 0.0019 kPa | 0.151 ± 0.012 kPa | 0.0127 ± 0.0007 kPa | 0.0248 ± 0.0009 kPa | 0.0461 ± 0.0013 kPa | 0.0824 ± 0.0021 kPa | 0.1441 ± 0.0028 kPa
